Values after ≈ are worked out from the molar mass of the structure shown. Like-named read-outs stand apart in the source and are kept apart here.
Tests used:
Assay type in all cases: cell-based
Edwardsiella tarda = test: MIC, microdilution in 96-well plates
Procedure: (§1) A microdilution method in 96-well plates was used and the MIC protocol established by the Clinical Laboratory Standards Institute was followed. From a growing subculture, a 1:10000 inoculum of each strain in Luria-Bertani media was prepared and aliquoted 100 μL in 4 columns of wells, except for the top row wells, which contained 200 μL of inoculum. A solution of gyramide C2 was aliquoted into 3 of the wells containing 200 μL and DMSO was added to the 4th well. The liquid in each of wells was mixed with a multi-channel pipet and 100 μL was transferred to the next well and mixed. The 2-fold dilution was continued down the 96-well plate until 100 μL was left, which was discarded. The plates were incubated at 37° C. with shaking for 16-18 hours. The MIC was determined as the lowest concentration that inhibited growth and had no turbidity by visual inspection.
(§2) Minimum inhibitory concentrations of various gyramide compounds against 20 strains of bacteria were determined using the procedure described above.

E. coli BW25113 = test: MIC, microdilution in 96-well plates; conditions: Escherichia coli, read-out: MIC
Procedure: as §1, §2

Streptococcus agalactiae = test: MIC, 20-strain panel
Procedure: as §1, §2

[1] = test system: Salmonella enterica subsp. enterica typhimurium; test: MIC, 20-strain panel
Procedure: as §1, §2

Shigella flexneri = test: MIC, 20-strain panel
Procedure: as §1, §2

[2] = test system: Staphylococcus saprophyticus subsp. saprophyticus; test: MIC, 20-strain panel
Procedure: as §1, §2

[3] = test system: Klebsiella pneumoniae subsp. pneumoniae; test: MIC, 20-strain panel
Procedure: as §1, §2

E. coli JW5503 (deltolC) = test: MIC, 20-strain panel; conditions: Escherichia coli
Procedure: as §1, §2

E. coli MG1655 = test: MIC, 20-strain panel; conditions: Escherichia coli, read-out: MIC
Procedure: as §1, §2

Streptococcus pyogenes = test: MIC, 20-strain panel
Procedure: as §1, §2

[4] = test system: Staphylococcus epidermidis; test: MIC, 20-strain panel
Procedure: as §1, §2

[5] = test system: Staphylococcus aureus subsp. aureus; test: MIC, 20-strain panel; conditions: read-out: MIC
Procedure: as §1, §2

[6] = Salmonella enterica subsp. enterica Typhimurium
[7] = Klebsiella pneumoniae subsp. pneumoniae
[8] = Staphylococcus aureus subsp. aureus
[9] = F: Salmonella enterica subsp. enterica Typhimurium
[10] = E: Klebsiella pneumoniae subsp. pneumoniae
[11] = H: Staphylococcus aureus subsp. aureus

Structure (SMILES) | MIC (Edwardsiella tarda) [µg/mL] | MIC (E. coli BW25113; BW25113, E. coli BW25113) [µg/mL] | MIC (Streptococcus agalactiae) [µg/mL] | MIC [1, 6] [µg/mL] | MIC (Shigella flexneri) [µg/mL] | MIC [2] [µg/mL] | MIC [3, 7] [µg/mL] | MIC (E. coli JW5503 (deltolC); E. coli JW5503 (deltolC)) [µg/mL] | MIC (E. coli MG1655; MG1655, E. coli MG1655) [µg/mL] | MIC (Streptococcus pyogenes) [µg/mL] | MIC [4] [µg/mL] | MIC [5, 8] [µg/mL] | MIC (Edwardsiella tarda; D: Edwardsiella tarda) [µg/mL] | MIC (E. coli BW25113; BW25113, B: E. coli BW25113) [µg/mL] | MIC [1, 9] [µg/mL] | MIC (Shigella flexneri; G: Shigella flexneri) [µg/mL] | MIC [3, 10] [µg/mL] | MIC (E. coli JW5503 (deltolC); C: E. coli JW5503 (deltolC)) [µg/mL] | MIC (E. coli MG1655; MG1655, A: E. coli MG1655) [µg/mL] | MIC [5, 11] [µg/mL]
CC(C)Oc1ccc(CN2CC[C@@H](NS(=O)(=O)c3cc(C(F)(F)F)ccc3Cl)C2)cc1 [Compound 140] | > 8 | > 8 | > 8 | 4 (≈ 8.39 µM) | > 8 | > 8 | > 8 | < 0.0625 | > 8 | > 8 | > 8 | > 8 | – | – | – | – | – | – | – | –
Cc1nn(C)c2ncc(S(=O)(=O)N[C@@H]3CCN(Cc4ccc(-c5ccccc5)cc4)C3)cc12 [Compound 115] | – | – | > 8 | – | – | > 8 | – | – | – | > 8 | > 8 | – | > 8 | > 8 | > 8 | > 8 | > 8 | > 8 | > 8 | > 8
O=S(=O)(N[C@@H]1CCN(Cc2ccc(OCC(F)F)cc2)C1)c1cccc(C(F)(F)F)c1 [Compound 64] | – | – | > 8 | – | – | > 8 | – | – | – | > 8 | > 8 | – | > 8 | > 8 | 4 (≈ 8.61 µM) | > 8 | > 8 | 0.25 (≈ 0.538 µM) | > 8 | > 8
O=S(=O)(N[C@@H]1CCN(Cc2ccn(-c3ccccc3)n2)C1)c1cccc(OC(F)(F)F)c1 [Compound 163] | > 8 | > 8 | > 8 | > 8 | > 8 | > 8 | > 8 | > 8 | > 8 | > 8 | > 8 | > 8 | – | – | – | – | – | – | – | –
O=S(=O)(N[C@@H]1CCN(Cc2ccc(-c3cncnc3)cc2)C1)c1cccc(C(F)(F)F)c1 [Compound 58] | – | – | > 8 | – | – | > 8 | – | – | – | > 8 | > 8 | – | > 8 | > 8 | > 8 | > 8 | > 8 | 8 (≈ 17.3 µM) | > 8 | > 8
O=S(=O)(N[C@@H]1CCN(Cc2ccc(OC3CC3)cc2)C1)c1cnc2ccccc2c1 [Compound 95] | – | – | > 8 | – | – | > 8 | – | – | – | > 8 | > 8 | – | > 8 | > 8 | > 8 | > 8 | > 8 | > 8 | > 8 | > 8
O=S(=O)(N[C@@H]1CCN(Cc2ccc(-n3ccnn3)cc2)C1)c1cccc(C(F)(F)F)c1 [Compound 3] | – | – | > 8 | – | – | > 8 | – | – | – | > 8 | > 8 | – | > 8 | > 8 | > 8 | > 8 | > 8 | 4 (≈ 8.86 µM) | > 8 | > 8
O=S(=O)(N[C@@H]1CCN(Cc2ccc(SC(F)(F)F)cc2)C1)c1cccc(C(F)(F)F)c1 [Compound 52] | – | – | > 8 | – | – | > 8 | – | – | – | > 8 | > 8 | – | > 8 | > 8 | > 8 | > 8 | > 8 | 4 (≈ 8.26 µM) | > 8 | > 8
O=S(=O)(N[C@@H]1CCN(Cc2ccc(-c3ccccc3Cl)cc2)C1)c1cccc(C(F)(F)F)c1 [Compound 69] | – | – | > 8 | – | – | > 8 | – | – | – | ~8 (≈ 16.2 µM) | 4 (≈ 8.08 µM) | – | > 8 | > 8 | > 8 | > 8 | > 8 | 8 (≈ 16.2 µM) | > 8 | > 8
